In ChEMBL document CHEMBL5634077, “Recent advances in 1,2,3- and 1,2,4-triazole hybrids as antimicrobials and their SAR: A critical review” (2023):
In brackets after ≈: the same amount, converted by molar mass. Blank lines part the entries; values can stand above or below the compound they belong to.

Tests used:
Type in all cases: functional
Staphylococcus aureus [1] = experiment: Antibacterial activity against Staphylococcus aureus NCIM 2079 assessed as reduction in bacterial growth incubated for 18 to 24 hrs by broth microdilution method; conditions: time 18-24 hrs
Bacillus subtilis [2] = experiment: Antibacterial activity against Bacillus subtilis NCIM 2063 assessed as reduction in bacterial growth incubated for 18 to 24 hrs by broth microdilution method; conditions: time 18-24 hrs
Bacillus cereus = experiment: Antibacterial activity against Bacillus cereus NCIM 2156 assessed as reduction in bacterial growth incubated for 18 to 24 hrs by broth microdilution method; conditions: time 18-24 hrs
Pseudomonas aeruginosa = experiment: Antibacterial activity against Pseudomonas aeruginosa NCIM 2036 assessed as reduction in bacterial growth incubated for 18 to 24 hrs by broth microdilution method; conditions: time 18-24 hrs
Escherichia coli [3] = experiment: Antibacterial activity against Escherichia coli NCIM 2065 assessed as reduction in bacterial growth incubated for 18 to 24 hrs by broth microdilution method; conditions: time 18-24 hrs
Proteus mirabilis = experiment: Antibacterial activity against Proteus mirabilis NCIM 2241 assessed as reduction in bacterial growth incubated for 18 to 24 hrs by broth microdilution method; conditions: time 18-24 hrs
Proteus vulgaris = experiment: Antibacterial activity against Proteus vulgaris NCIM 2027 assessed as reduction in bacterial growth incubated for 18 to 24 hrs by broth microdilution method; conditions: time 18-24 hrs
Escherichia coli [4] = experiment: Antibacterial activity against Escherichia coli assessed as reduction in bacterial growth
Bacillus subtilis [5] = experiment: Antibacterial activity against Bacillus subtilis assessed as reduction in bacterial growth
Staphylococcus aureus [6] = experiment: Antibacterial activity against Staphylococcus aureus assessed as inhibition of bacterial growth
Escherichia coli [7] = experiment: Antibacterial activity against Escherichia coli assessed as inhibition of bacterial growth
Klebsiella pneumoniae [8] = experiment: Antibacterial activity against Klebsiella pneumoniae assessed as inhibition of bacterial growth
Candida albicans [9] = experiment: Antifungal activity against Candida albicans assessed as inhibition of fungal growth
Aspergillus flavus = experiment: Antifungal activity against Aspergillus flavus assessed as inhibition of fungal growth
Rhizopus = experiment: Antifungal activity against Rhizopus assessed as inhibition of fungal growth
Staphylococcus aureus [10] = experiment: Antimicrobial activity against Staphylococcus aureus assessed as diameter of inhibition zone incubated for 24 hrs by disc-diffusion method
Escherichia coli [11] = experiment: Antimicrobial activity against Escherichia coli assessed as diameter of inhibition zone incubated for 24 hrs by disc-diffusion method
Klebsiella pneumoniae [12] = experiment: Antimicrobial activity against Klebsiella pneumoniae assessed as diameter of inhibition zone incubated for 24 hrs by disc-diffusion method
Candida albicans [13] = experiment: Antimicrobial activity against Candida albicans assessed as diameter of inhibition zone incubated for 24 hrs by disc-diffusion method
Escherichia coli [14] = experiment: Antibacterial activity against Escherichia coli assessed as reduction in bacterial growth by broth microdilution method
Candida albicans [15] = experiment: Antifungal activity against Candida albicans IFRC 194 assessed as reduction in fungal growth by CLSI based micro-dilution asssay
Nakaseomyces glabratus = experiment: Antifungal activity against Candida glabrata assessed as reduction in fungal growth by CLSI based micro-dilution asssay
Candida parapsilosis = experiment: Antifungal activity against Candida parapsilosis IFRC 1269 assessed as reduction in fungal growth by CLSI based micro-dilution asssay; conditions: Lodderomyces parapsilosis
Pichia kudriavzevii = experiment: Antifungal activity against Candida krusei IFRC 1012 assessed as reduction in fungal growth by CLSI based micro-dilution asssay
Candida tropicalis = experiment: Antifungal activity against Candida tropicalis IFRC 1057 assessed as reduction in fungal growth by CLSI based micro-dilution asssay
Staphylococcus aureus [16] = experiment: Antibacterial activity against Staphylococcus aureus

Compound: NC(=O)NCn1nc(NCCCNc2ccnc3cc(Cl)ccc23)n(N)c1=S
MIC (Staphylococcus aureus [1]): 6.25 µg/mL (≈ 14.8 µM) | MIC (Bacillus subtilis [2]): 12.5 µg/mL (≈ 29.6 µM) | MIC (Bacillus cereus): 3.12 µg/mL (≈ 7.41 µM) | MIC (Pseudomonas aeruginosa): 50 µg/mL (≈ 119 µM) | MIC (Escherichia coli [3]): 3.12 µg/mL (≈ 7.41 µM) | MIC (Proteus mirabilis): 12.5 µg/mL (≈ 29.6 µM) | MIC (Proteus vulgaris): 12.5 µg/mL (≈ 29.6 µM)

Compound: CC(c1ccc(Br)cc1)n1cc(Cn2cc(/C=C/C(=O)c3ccc(Br)cc3)c3ccccc32)nn1 (stereo not drawn)
MIC (Escherichia coli [4]): 10.9 µM (≈ 6.43 µg/mL) | MIC (Bacillus subtilis [5]): 10.9 µM (≈ 6.43 µg/mL)

Compound: COc1cc(/C=N/n2c(-c3ccc(Cl)cc3Cl)n[nH]c2=S)ccc1O
diameter of the inhibition zone (DIZ) (Staphylococcus aureus [10]): 3 mm | diameter of the inhibition zone (DIZ) (Escherichia coli [11]): 3 mm | diameter of the inhibition zone (DIZ) (Klebsiella pneumoniae [12]): 3 mm | diameter of the inhibition zone (DIZ) (Candida albicans [13]): 3 mm

Compound: Cc1ccc(NC(=O)Cn2cc(Cn3cc(CC(NC(=O)C(C)c4ccc(CC(C)C)cc4)C(=O)NC(Cc4ccccc4)C(N)=O)c4ccccc43)nn2)c(C)c1 (stereo not drawn)
MIC (Escherichia coli [14]): 25 µg/mL (≈ 32 µM)

Compound: OC(CSC(=S)N1CCN(Cc2ccc(Cl)cc2)CC1)(Cn1cncn1)c1ccc(F)cc1F (stereo not drawn)
MIC (Candida albicans [15]): 0.063 µg/mL (≈ 0.12 µM) | MIC (Nakaseomyces glabratus): 0.063 µg/mL (≈ 0.12 µM) | MIC (Candida parapsilosis): 0.063 µg/mL (≈ 0.12 µM) | MIC (Pichia kudriavzevii): 0.063 µg/mL (≈ 0.12 µM) | MIC (Candida tropicalis): 0.063 µg/mL (≈ 0.12 µM)

Compound: CC(=O)NCn1nc(NCCCNc2ccnc3cc(Cl)ccc23)n(N)c1=S
MIC (Staphylococcus aureus [1]): 6.25 µg/mL (≈ 14.8 µM) | MIC (Bacillus subtilis [2]): 12.5 µg/mL (≈ 29.7 µM) | MIC (Bacillus cereus): 6.25 µg/mL (≈ 14.8 µM) | MIC (Pseudomonas aeruginosa): 25 µg/mL (≈ 59.4 µM) | MIC (Escherichia coli [3]): 12.5 µg/mL (≈ 29.7 µM) | MIC (Proteus mirabilis): 12.5 µg/mL (≈ 29.7 µM) | MIC (Proteus vulgaris): 12.5 µg/mL (≈ 29.7 µM)

Compound: Cc1ccc(NC(=O)Cn2cc(COc3ccc(C(=O)/C=C/c4ccccc4)cc3)nn2)cc1
MIC (Staphylococcus aureus [16]): 13 µM (≈ 5.88 µg/mL) | MIC (Bacillus subtilis [5]): 13 µM (≈ 5.88 µg/mL)

Compound: COc1ccc(NC(=O)NCc2cn(CC(=O)Nc3ccc(C(F)(F)F)cc3)nn2)cc1
MIC (Staphylococcus aureus [16]): 27 µM (≈ 12.1 µg/mL)

Compound: S=c1[nH]nc(-c2ccc(Cl)cc2Cl)n1/N=C/c1ccco1
diameter of the inhibition zone (DIZ) (Staphylococcus aureus [10]): 3 mm | diameter of the inhibition zone (DIZ) (Escherichia coli [11]): 3 mm | diameter of the inhibition zone (DIZ) (Klebsiella pneumoniae [12]): 3 mm | diameter of the inhibition zone (DIZ) (Candida albicans [13]): 3 mm

Compound: CC(C)Cc1ccc(C(C)C(=O)NC(Cc2cn(Cc3cn(CC(=O)Nc4ccccc4[N+](=O)[O-])nn3)c3ccccc23)C(=O)NC(Cc2ccccc2)C(N)=O)cc1 (stereo not drawn)
MIC (Escherichia coli [14]): 25 µg/mL (≈ 31.3 µM)

Other lines, results leading:

MIC (Staphylococcus aureus [6]): 4 µg/mL (≈ 9.19 µM) | MIC (Escherichia coli [7]): 8 µg/mL (≈ 18.4 µM) | MIC (Klebsiella pneumoniae [8]): 4 µg/mL (≈ 9.19 µM) | MIC (Candida albicans [9]): 8 µg/mL (≈ 18.4 µM) | MIC (Aspergillus flavus): 4 µg/mL (≈ 9.19 µM) | MIC (Rhizopus): 8 µg/mL (≈ 18.4 µM)
Compound: COc1cc(N2CCC(c3n[nH]c(=S)n3-c3cccc(Cl)c3)CC2)ccc1Cl

MIC (Staphylococcus aureus [6]): 8 µg/mL (≈ 18.4 µM) | MIC (Escherichia coli [7]): 4 µg/mL (≈ 9.19 µM) | MIC (Klebsiella pneumoniae [8]): 8 µg/mL (≈ 18.4 µM) | MIC (Candida albicans [9]): 4 µg/mL (≈ 9.19 µM) | MIC (Aspergillus flavus): 8 µg/mL (≈ 18.4 µM) | MIC (Rhizopus): 8 µg/mL (≈ 18.4 µM)
Compound: COc1cc(N2CCC(c3n[nH]c(=S)n3-c3ccc(Cl)cc3)CC2)ccc1Cl

MIC (Staphylococcus aureus [6]): 16 µg/mL (≈ 34.1 µM) | MIC (Escherichia coli [7]): 8 µg/mL (≈ 17 µM) | MIC (Klebsiella pneumoniae [8]): 8 µg/mL (≈ 17 µM) | MIC (Candida albicans [9]): 16 µg/mL (≈ 34.1 µM) | MIC (Aspergillus flavus): 32 µg/mL (≈ 68.1 µM) | MIC (Rhizopus): 32 µg/mL (≈ 68.1 µM)
Compound: COc1cc(N2CCC(c3n[nH]c(=S)n3-c3cc(Cl)cc(Cl)c3)CC2)ccc1Cl

MIC (Staphylococcus aureus [6]): 4 µg/mL (≈ 8.53 µM) | MIC (Escherichia coli [7]): 4 µg/mL (≈ 8.53 µM) | MIC (Klebsiella pneumoniae [8]): 8 µg/mL (≈ 17.1 µM) | MIC (Candida albicans [9]): 8 µg/mL (≈ 17.1 µM) | MIC (Aspergillus flavus): 4 µg/mL (≈ 8.53 µM) | MIC (Rhizopus): 8 µg/mL (≈ 17.1 µM)
Compound: COc1cc(N2CCC(c3n[nH]c(=S)n3-c3cccc(C(F)(F)F)c3)CC2)ccc1Cl
